Results on 3 compounds are retold here after patent US6897239B1, “Use of misoprostol and/or metabolites of misoprostol for treating sexual dysfunction in women” (Lavipharm S.A., priority 1998, dated 2005).

The test system of data set [1] is women with sexual dysfunction. Kind of data set: external application of misoprostol to the clitoris or/and to the vagina. Format: in vivo. The settings on record: for local vasodilation after external application: used externally to the clitoris or/and to the vagina. The text has this: Because of the local vasodilation is caused tumescence of the clitoris, intence bleeding of the vagina and feeling of sexual desire. Simultaneously, in women with anorgasmia of various causes, promote after masturbation or sexual intercourse, the coming of orgasm.
Method of application: 0.1 (or more, depending on responce) are applied to the clitoris or/and to the vagina.
(§1) As had already been mentioned, misoprostol is an extremely hydrophile molecule compared with other prostaglandins of E1 series (e.g. with alprostadil which can be dissolved in alcohol but her solubility in water is only 8000 mcg/100 ml at 35° C.).

The next data set can be described thus: solubility in water. The class given is physicochemical. The procedure: as §1
Another data set has as its system patients. The settings on record: cited from earlier work.
For data set [2] the following is noted: at 35° C.; cited from earlier work.

Read-outs that look alike come from different tables or passages of the source.

Regarding `CCCCC(C)(O)C/C=C/[C@H]1[C@H](O)CC(=O)[C@@H]1CCCCCCC(=O)OC` (mixture of isomers) [Misoprostol, (11a,13E)-(±)-11,16-Dihydroxy-16-methyl-9-oxoprost-13-en-1-oic acid methyl ester], in data set [1] (external application of the example forms), the “time of appearance of the result” value is 20 to 40 min. Further, the systematic undesirable effects result in data set [1] (high once only doses >1000 mcg to the clitoris or to the vagina) is “shudder, feeling of hard ship, excitement and diarrhea”. Also, the “misoprostol action in the presence of Polysorbate "80"” value in data set [1] (in the presence of Polysorbate "80") is “important reduction or/and neutralization”. The “change of misoprostol activity as a function of pH” value in data set [1] (pH of the pharmacotechnical form) is “No significant changes”. Besides, the “undesirable effects in the presence of a-cyclodextrine” value in data set [1] (presence of a-cyclodextrine) was “reduces the undesirable effects”. Moreover, the “local vasodilation after external application” value in data set [1] is on record as “strong local vasodilation”. Moreover, the “solubility in water” value in the data set “solubility in water” is “can be dissolved in water”. Besides, in the data set on patients (in vivo), the “carcinogenic or teratogenic effect” value is given as “hasn't been accused” and the effect on uterus entry is “irritation of the smooth uterine fibbers”. Moreover, in the data set with patients (oral therapy), the “undesirable effects in oral therapy” value is “male impotence”.
For the compound `CCCCC[C@H](O)/C=C/[C@H]1[C@H](O)CC(=O)[C@@H]1CCCCCCC(=O)O` [alprostadil], the solubility in water in data set [2] is listed as 8000 mcg/100 ml.
In the case of `CCCCC(C)(O)C/C=C/[C@H]1[C@H](O)CC(=O)[C@@H]1CCCCCCC(=O)O` (mixture of isomers) [misoprostol acid], the “local vasodilation after external application” value in data set [1] is recorded as “Equally strong topical vasodilation”.
